According to US20250206732A1, “COMPOUNDS AND METHODS FOR THE TARGETED DEGRADATION OF KRAS” (Arvinas Operations, Inc., priority 2022, published 2025):

Molecular target: T1, AsPC-1 HiBiT-KRASG12D (Homo sapiens, UniProt P01116, G12D)
T1 construct: insert the HiBiT tag onto the N-terminus of one or more of the endogenous KRAS alleles; endogenous in cells; host or cells: AsPC-1 (ATCC CRL-1682), CRISPR-Cas9 knock-in clone, one tagged allele
Assay: HiBiT degradation assay (G12D), AsPC-1 HiBiT-KRASG12D cells
Type: cell-based
Conditions: 24 hours treatment; for Dmax: ASPC1, AsPC-1 HiBiT-KRASG12D cells, maximum degradation observed; for DC50: AsPC-1 HiBiT-KRASG12D cells, HiBiT luminescence
Procedure, shortened: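 24 h cmpd treatment, 37° C/5% CO2, AsPC-1 HiBiT-KRASG12D clone (CRISPR N-term tag). Alamar blue 1×, 4 h, fluorescence. PBS wash, Nano-Glo HiBiT lytic reagent, 45 min RT, luminescence. Triplicates.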

T1 sequence (P01116 1-188 isoform P01116-2 G12D): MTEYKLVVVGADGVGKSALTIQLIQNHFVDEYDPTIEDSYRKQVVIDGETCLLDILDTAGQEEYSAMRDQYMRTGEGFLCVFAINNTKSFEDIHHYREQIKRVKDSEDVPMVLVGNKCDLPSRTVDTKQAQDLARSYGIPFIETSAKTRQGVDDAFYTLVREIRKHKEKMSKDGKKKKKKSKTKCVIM

Row | SMILES | Dmax | DC50
1 | CCc1cccc2cc(O)cc(-c3ncc4c(N5CC6CCC(C5)N6)nc(OC[C@]56CCCN5[C@H](COC(=O)N5CC7(C5)CN(c5cc([C@@H](C(=O)N8C[C@H](O)C[C@H]8C(=O)N[C@@H](C)c8ccc(-c9scnc9C)cc8)C(C)C)on5)C7)CC6)nc4c3F)c12 [Compound 144, [(3S,7aR)-7a-{[(4-{3,8-diazabicyclo[3.2.1]octan-3-yl}-7-(8-ethyl-3-hydroxynaphthalen-1-yl)-8-fluoropyrido[4,3-d]pyrimidin-2-yl)oxy]methyl}-hexahydro-1H-pyrrolizin-3-yl]methyl 6-{5-[(2S)-1-[(2S,4R)-4-hydroxy-2-{[(1S)-1-[4-(4-methyl-1,3-thiazol-5-yl)phenyl]ethyl]carbamoyl}pyrrolidin-1-yl]-3-methyl-1-oxobutan-2-yl]-1,2-oxazol-3-yl}-2,6-diazaspiro[3.3]heptane-2-carboxylate] | 20 to 60% | 0.6 to 1 µM
2 | C#Cc1c(F)ccc2cc(O)cc(-c3ncc4c(N5CC6CCC(C5)N6)nc(OCCN5CCC(F)(COc6cc([C@H](C(=O)N7C[C@H](O)C[C@H]7C(=O)N[C@@H](C)c7ccc(-c8scnc8C)cc7)C(C)C)on6)CC5)nc4c3F)c12 [Compound 153, (2S,4R)-1-[(2R)-2-{3-[(1-{2-[(4-{3,8-diazabicyclo[3.2.1]octan-3-yl}-7-(8-ethynyl-7-fluoro-3-hydroxynaphthalen-1-yl)-8-fluoropyrido[4,3-d]pyrimidin-2-yl)oxy]ethyl}-4-fluoropiperidin-4-yl)methoxy]-1,2-oxazol-5-yl}-3-methylbutanoyl]-4-hydroxy-N-[(1S)-1-[4-(4-methyl-1,3-thiazol-5-yl)phenyl]ethyl]pyrrolidine-2-carboxamide] | 80 to 100% | < 0.6 µM
3 | C#Cc1c(F)ccc2cc(O)cc(-c3ncc4c(N5CC6CCC(C5)N6)nc(OCCN5CCC(F)(COc6cc([C@@H](C(=O)N7C[C@H](O)C[C@H]7C(=O)N[C@@H](C)c7ccc(-c8scnc8C)cc7)C(C)C)on6)CC5)nc4c3F)c12 [Compound 154, (2S,4R)-1-[(2S)-2-{3-[(1-{2-[(4-{3,8-diazabicyclo[3.2.1]octan-3-yl}-7-(8-ethynyl-7-fluoro-3-hydroxynaphthalen-1-yl)-8-fluoropyrido[4,3-d]pyrimidin-2-yl)oxy]ethyl}-4-fluoropiperidin-4-yl)methoxy]-1,2-oxazol-5-yl}-3-methylbutanoyl]-4-hydroxy-N-[(1S)-1-[4-(4-methyl-1,3-thiazol-5-yl)phenyl]ethyl]pyrrolidine-2-carboxamide] | 80 to 100% | < 0.6 µM
4 | CCc1cccc2cc(O)cc(-c3ncc4c(N5CC6CCC(C5)N6)nc(OCCN5CCC(F)(CN6CCN(c7cnc(C(=O)N[C@H](C(=O)N8C[C@H](O)C[C@H]8C(=O)N[C@@H](C)c8ccc(-c9scnc9C)cc8)C(C)(C)C)cn7)CC6)CC5)nc4c3F)c12 [Compound 155, 5-{4-[(1-{2-[(4-{3,8-diazabicyclo[3.2.1]octan-3-yl}-7-(8-ethyl-3-hydroxynaphthalen-1-yl)-8-fluoropyrido[4,3-d]pyrimidin-2-yl)oxy]ethyl}-4-fluoropiperidin-4-yl)methyl]piperazin-1-yl}-N-[(2S)-1-[(2S,4R)-4-hydroxy-2-{[(1S)-1-[4-(4-methyl-1,3-thiazol-5-yl)phenyl]ethyl]carbamoyl}pyrrolidin-1-yl]-3,3-dimethyl-1-oxobutan-2-yl]pyrazine-2-carboxamide] | 60 to 80% | < 0.6 µM
5 | C#Cc1c(F)ccc2cc(O)cc(-c3ncc4c(N5CC6CCC(C5)N6)nc(OCCN5CCC(CC6CN(c7cc([C@H](C(=O)N8C[C@H](O)C[C@H]8C(=O)N[C@@H](C)c8ccc(-c9ccnn9C)cc8)C(C)C)on7)C6)CC5)nc4c3F)c12 [Compound 156, (2S,4R)-1-[(2R)-2-(3-{3-[(1-{2-[(4-{3,8-diazabicyclo[3.2.1]octan-3-yl}-7-(8-ethynyl-7-fluoro-3-hydroxynaphthalen-1-yl)-8-fluoropyrido[4,3-d]pyrimidin-2-yl)oxy]ethyl}piperidin-4-yl)methyl]azetidin-1-yl}-1,2-oxazol-5-yl)-3-methylbutanoyl]-4-hydroxy-N-[(1S)-1-[4-(1-methyl-1H-pyrazol-5-yl)phenyl]ethyl]pyrrolidine-2-carboxamide] | 80 to 100% | < 0.6 µM
6 | C#Cc1c(F)ccc2cc(O)cc(-c3ncc4c(N5CC6CCC(C5)N6)nc(OCCN5CCC(CC6(F)CCN(CC(=O)N[C@H](C(=O)N7C[C@H](O)C[C@H]7C(=O)N[C@@H](C)c7ccc(-c8scnc8C)cc7)C(C)(C)C)CC6)CC5)nc4c3F)c12 [Compound 157, (2S,4R)-1-[(2S)-2-(2-{4-[(1-{2-[(4-{3,8-diazabicyclo[3.2.1]octan-3-yl}-7-(8-ethynyl-7-fluoro-3-hydroxynaphthalen-1-yl)-8-fluoropyrido[4,3-d]pyrimidin-2-yl)oxy]ethyl}piperidin-4-yl)methyl]-4-fluoropiperidin-1-yl}acetamido)-3,3-dimethylbutanoyl]-4-hydroxy-N-[(1S)-1-[4-(4-methyl-1,3-thiazol-5-yl)phenyl]ethyl]pyrrolidine-2-carboxamide] | 80 to 100% | < 0.6 µM
7 | C#Cc1c(F)ccc2cc(O)cc(-c3ncc4c(N5CC6CCC(C5)N6)nc(OCCN5CCC(OC6CN(c7cc([C@@H](C(=O)N8C[C@H](O)C[C@H]8C(=O)N[C@@H](C)c8ccc(-c9scnc9C)cc8)C(C)C)on7)C6)CC5)nc4c3F)c12 [Compound 158] | 80 to 100% | < 0.6 µM
8 | C#Cc1c(F)ccc2cc(O)cc(-c3ncc4c(N5CC6CCC(C5)N6)nc(OCCN5CCC6(CC5)CC(Oc5cc([C@@H](C(=O)N7C[C@H](O)C[C@H]7C(=O)N[C@@H](C)c7ccc(-c8scnc8C)cc7)C(C)C)on5)C6)nc4c3F)c12 [Compound 159, (2S,4R)-1-[(2S)-2-{3-[(7-{2-[(4-{3,8-diazabicyclo[3.2.1]octan-3-yl}-7-(8-ethynyl-7-fluoro-3-hydroxynaphthalen-1-yl)-8-fluoropyrido[4,3-d]pyrimidin-2-yl)oxy]ethyl}-7-azaspiro[3.5]nonan-2-yl)oxy]-1,2-oxazol-5-yl}-3-methylbutanoyl]-4-hydroxy-N-[(1S)-1-[4-(4-methyl-1,3-thiazol-5-yl)phenyl]ethyl]pyrrolidine-2-carboxamide] | 60 to 80% | < 0.6 µM
9 | C#Cc1c(F)ccc2cc(O)cc(-c3ncc4c(N5CC6CCC(C5)N6)nc(OCCN5CCC(CC6CN(c7cc([C@@H](C(=O)N8C[C@H](O)C[C@H]8C(=O)N[C@@H](C)c8ccc(-c9ccnn9C)cc8)C(C)C)on7)C6)CC5)nc4c3F)c12 [Compound 160, (2S,4R)-1-[(2S)-2-(3-{3-[(1-{2-[(4-{3,8-diazabicyclo[3.2.1]octan-3-yl}-7-(8-ethynyl-7-fluoro-3-hydroxynaphthalen-1-yl)-8-fluoropyrido[4,3-d]pyrimidin-2-yl)oxy]ethyl}piperidin-4-yl)methyl]azetidin-1-yl}-1,2-oxazol-5-yl)-3-methylbutanoyl]-4-hydroxy-N-[(1S)-1-[4-(1-methyl-1H-pyrazol-5-yl)phenyl]ethyl]pyrrolidine-2-carboxamide] | 20 to 60% | > 3 µM
10 | C#Cc1c(F)ccc2cc(O)cc(-c3ncc4c(N5CC6CCC(C5)N6)nc(OCCN5CCC6(CC5)CC(Oc5cc([C@H](C(=O)N7C[C@H](O)C[C@H]7C(=O)N[C@@H](C)c7ccc(-c8scnc8C)cc7)C(C)C)on5)C6)nc4c3F)c12 [Compound 161, (2S,4R)-1-[(2R)-2-{3-[(7-{2-[(4-{3,8-diazabicyclo[3.2.1]octan-3-yl}-7-(8-ethynyl-7-fluoro-3-hydroxynaphthalen-1-yl)-8-fluoropyrido[4,3-d]pyrimidin-2-yl)oxy]ethyl}-7-azaspiro[3.5]nonan-2-yl)oxy]-1,2-oxazol-5-yl}-3-methylbutanoyl]-4-hydroxy-N-[(1S)-1-[4-(4-methyl-1,3-thiazol-5-yl)phenyl]ethyl]pyrrolidine-2-carboxamide] | 80 to 100% | < 0.6 µM
11 | CCc1cccc2cc(O)cc(-c3ncc4c(N5CC6CCC(C5)N6)nc(OC[C@H]5CN(CC6CN(c7cc([C@H](C(=O)N8C[C@H](O)C[C@H]8C(=O)N[C@@H](C)c8ccc(-c9scnc9C)cc8)C(C)C)on7)C6)CCN5C)nc4c3F)c12 [Compound 162, (2S,4R)-1-[(2R)-2-[3-(3-{[(3R)-3-{[(4-{3,8-diazabicyclo[3.2.1]octan-3-yl}-7-(8-ethyl-3-hydroxynaphthalen-1-yl)-8-fluoropyrido[4,3-d]pyrimidin-2-yl)oxy]methyl}-4-methylpiperazin-1-yl]methyl}azetidin-1-yl)-1,2-oxazol-5-yl]-3-methylbutanoyl]-4-hydroxy-N-[(1S)-1-[4-(4-methyl-1,3-thiazol-5-yl)phenyl]ethyl]pyrrolidine-2-carboxamide] | 20 to 60% | < 0.6 µM
12 | CCc1cccc2cc(O)cc(-c3ncc4c(N5CC6CCC(C5)N6)nc(OC[C@@H]5CN(CC6CN(c7cc([C@H](C(=O)N8C[C@H](O)C[C@H]8C(=O)N[C@@H](C)c8ccc(-c9scnc9C)cc8)C(C)C)on7)C6)CCN5C)nc4c3F)c12 [Compound 163, (2S,4R)-1-[(2R)-2-[3-(3-{[(3S)-3-{[(4-{3,8-diazabicyclo[3.2.1]octan-3-yl}-7-(8-ethyl-3-hydroxynaphthalen-1-yl)-8-fluoropyrido[4,3-d]pyrimidin-2-yl)oxy]methyl}-4-methylpiperazin-1-yl]methyl}azetidin-1-yl)-1,2-oxazol-5-yl]-3-methylbutanoyl]-4-hydroxy-N-[(1S)-1-[4-(4-methyl-1,3-thiazol-5-yl)phenyl]ethyl]pyrrolidine-2-carboxamide] | 60 to 80% | < 0.6 µM
